What was measured:
[1] = biological target: Multidrug resistance associated protein (Homo sapiens) (UniProt Q96QA9); experiment: (§1) TP_TRANSPORTER: Northern blot from HepG2 cells; type: functional, cell-based
[2] = biological target: Multidrug resistance-associated protein 1 (Homo sapiens, UniProt P33527); experiment: as §1; type: functional, cell-based
Sequence of Multidrug resistance-associated protein 1 (P33527 whole entry): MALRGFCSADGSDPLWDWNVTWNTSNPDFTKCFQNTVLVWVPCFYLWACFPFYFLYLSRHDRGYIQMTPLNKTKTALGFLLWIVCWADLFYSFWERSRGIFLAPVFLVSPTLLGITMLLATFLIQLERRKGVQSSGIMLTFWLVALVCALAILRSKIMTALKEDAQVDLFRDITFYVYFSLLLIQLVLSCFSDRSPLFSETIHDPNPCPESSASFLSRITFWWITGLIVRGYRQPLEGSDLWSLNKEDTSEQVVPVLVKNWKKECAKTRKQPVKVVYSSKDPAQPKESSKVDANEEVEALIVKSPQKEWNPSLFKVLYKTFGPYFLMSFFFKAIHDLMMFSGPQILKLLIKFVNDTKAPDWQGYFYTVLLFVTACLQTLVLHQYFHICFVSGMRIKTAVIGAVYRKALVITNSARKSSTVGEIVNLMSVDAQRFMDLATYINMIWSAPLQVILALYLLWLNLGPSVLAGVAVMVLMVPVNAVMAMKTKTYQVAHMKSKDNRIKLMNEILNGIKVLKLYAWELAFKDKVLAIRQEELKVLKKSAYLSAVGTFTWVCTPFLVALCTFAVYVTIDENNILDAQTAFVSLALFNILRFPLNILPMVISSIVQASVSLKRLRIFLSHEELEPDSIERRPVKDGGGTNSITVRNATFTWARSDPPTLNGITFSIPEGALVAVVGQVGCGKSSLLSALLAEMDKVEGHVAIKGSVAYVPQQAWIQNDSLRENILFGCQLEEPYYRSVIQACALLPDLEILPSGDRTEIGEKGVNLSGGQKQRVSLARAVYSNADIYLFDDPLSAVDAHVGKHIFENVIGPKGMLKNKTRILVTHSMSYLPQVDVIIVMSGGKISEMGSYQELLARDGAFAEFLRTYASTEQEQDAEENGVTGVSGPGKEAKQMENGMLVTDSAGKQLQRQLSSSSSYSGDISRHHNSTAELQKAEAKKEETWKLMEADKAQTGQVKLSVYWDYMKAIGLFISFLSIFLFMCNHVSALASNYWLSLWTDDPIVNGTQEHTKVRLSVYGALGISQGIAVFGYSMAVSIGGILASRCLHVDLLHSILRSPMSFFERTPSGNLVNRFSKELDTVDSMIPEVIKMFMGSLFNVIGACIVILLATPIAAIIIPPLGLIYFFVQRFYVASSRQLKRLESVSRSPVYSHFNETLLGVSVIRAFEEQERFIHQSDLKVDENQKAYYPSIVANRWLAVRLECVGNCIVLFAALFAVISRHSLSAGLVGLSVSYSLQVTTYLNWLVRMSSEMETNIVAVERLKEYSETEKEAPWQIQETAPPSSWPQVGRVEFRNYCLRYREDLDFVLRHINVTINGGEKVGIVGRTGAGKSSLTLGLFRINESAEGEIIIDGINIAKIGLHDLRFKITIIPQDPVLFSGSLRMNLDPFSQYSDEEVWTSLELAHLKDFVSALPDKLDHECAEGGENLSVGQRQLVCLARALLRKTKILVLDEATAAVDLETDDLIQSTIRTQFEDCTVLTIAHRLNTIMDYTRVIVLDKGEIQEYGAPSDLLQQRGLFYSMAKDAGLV

Sequence of Multidrug resistance associated protein (Homo sapiens) (Q96QA9 as listed by the source): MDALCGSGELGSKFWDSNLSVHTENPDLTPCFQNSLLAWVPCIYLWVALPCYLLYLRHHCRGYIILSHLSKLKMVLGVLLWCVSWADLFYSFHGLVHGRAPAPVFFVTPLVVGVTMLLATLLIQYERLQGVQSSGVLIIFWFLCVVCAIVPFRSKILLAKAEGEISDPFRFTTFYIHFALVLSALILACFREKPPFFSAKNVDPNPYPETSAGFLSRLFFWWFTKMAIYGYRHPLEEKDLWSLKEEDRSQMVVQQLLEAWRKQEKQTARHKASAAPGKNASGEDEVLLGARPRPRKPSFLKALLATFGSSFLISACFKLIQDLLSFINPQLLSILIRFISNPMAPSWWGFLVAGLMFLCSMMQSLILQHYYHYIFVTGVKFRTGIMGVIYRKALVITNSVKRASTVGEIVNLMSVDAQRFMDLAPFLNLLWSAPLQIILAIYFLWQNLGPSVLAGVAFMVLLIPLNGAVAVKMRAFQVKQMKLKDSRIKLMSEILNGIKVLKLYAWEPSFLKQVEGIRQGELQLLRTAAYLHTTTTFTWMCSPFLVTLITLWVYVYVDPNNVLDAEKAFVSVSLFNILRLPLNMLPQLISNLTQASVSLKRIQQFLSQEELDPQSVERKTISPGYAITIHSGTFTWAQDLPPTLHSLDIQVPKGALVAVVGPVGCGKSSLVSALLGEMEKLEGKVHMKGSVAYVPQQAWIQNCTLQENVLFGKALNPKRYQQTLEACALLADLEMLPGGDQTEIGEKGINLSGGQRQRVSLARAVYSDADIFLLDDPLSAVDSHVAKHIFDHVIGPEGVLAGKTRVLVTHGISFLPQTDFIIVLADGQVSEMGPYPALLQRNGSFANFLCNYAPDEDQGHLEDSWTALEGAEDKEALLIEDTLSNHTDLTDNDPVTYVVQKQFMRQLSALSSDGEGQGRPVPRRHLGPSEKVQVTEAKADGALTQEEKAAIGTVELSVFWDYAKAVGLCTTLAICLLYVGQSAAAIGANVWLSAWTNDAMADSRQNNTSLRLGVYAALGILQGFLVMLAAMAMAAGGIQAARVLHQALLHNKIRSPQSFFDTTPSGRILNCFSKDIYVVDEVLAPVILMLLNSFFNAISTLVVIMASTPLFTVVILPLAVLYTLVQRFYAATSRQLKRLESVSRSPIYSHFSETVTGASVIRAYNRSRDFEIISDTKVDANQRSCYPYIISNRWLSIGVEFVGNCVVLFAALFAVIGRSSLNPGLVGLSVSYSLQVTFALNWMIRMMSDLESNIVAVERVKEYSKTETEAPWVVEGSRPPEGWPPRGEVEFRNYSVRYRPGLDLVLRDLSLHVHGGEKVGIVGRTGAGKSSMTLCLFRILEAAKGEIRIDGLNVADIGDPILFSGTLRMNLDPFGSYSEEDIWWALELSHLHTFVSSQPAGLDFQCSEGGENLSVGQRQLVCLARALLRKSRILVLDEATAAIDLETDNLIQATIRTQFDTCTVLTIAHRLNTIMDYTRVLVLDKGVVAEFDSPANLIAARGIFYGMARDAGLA

Compound: CCC1(c2ccccc2)C(=O)NC(=O)NC1=O [PHENOBARBITAL]
- Activity [1]: inducer [+]
- Activity [2]: inducer [+]
